Legend:
[1] = human pharmacokinetic study: blood plasma concentration of valdecoxib; format: in vivo
Experimental: Subjects drank 180 ml water one, two and three hours postdose.

physchem = settings: 20 °C, thermodynamic from solid
COX-1 = COX-1 (Homo sapiens, UniProt P23219); settings: in vitro; cited from earlier work
[2] = test system: patients requiring extraction of two ipsilateral impacted third molars; experiment: placebo-controlled single-dose preemptive analgesia study, third molar extraction; format: in vivo, human
Experimental: Beginning at 30 minutes after closure of surgery, level of pain was assessed every two hours up to 24 hours, except that patients were not awakened for pain assessments. Pain was assessed by the patient on a 0-3 scale and on a chart representing a continuum from “no pain” to “worst pain”. Rescue medication was administered on demand by the patient. At the last scheduled assessment, or immediately prior to administration of rescue medication, the patient was asked to evaluate the effectiveness of the study medication to delay pain. Time to rescue medication (TRM) was analyzed using survival analysis techniques. The median time to event for each treatment group was calculated using the Kaplan-Meier product limit estimator, including the adjustment described by Miller (1981) in Survival Analysis, pp. 74-75. New York: John Wiley & Sons. Ninety five percent (95%) confidence intervals for the median time to event were calculated using the method of Simon & Lee (1982), Cancer Treat. Rep. 66, 37-42. […] Patients who dropped out for reasons other than administration of rescue medication were censored at the time they dropped out of the study.

[3] = single preemptive intravenous dose 40 mg

Sequence of COX-1 (P23219 24-599): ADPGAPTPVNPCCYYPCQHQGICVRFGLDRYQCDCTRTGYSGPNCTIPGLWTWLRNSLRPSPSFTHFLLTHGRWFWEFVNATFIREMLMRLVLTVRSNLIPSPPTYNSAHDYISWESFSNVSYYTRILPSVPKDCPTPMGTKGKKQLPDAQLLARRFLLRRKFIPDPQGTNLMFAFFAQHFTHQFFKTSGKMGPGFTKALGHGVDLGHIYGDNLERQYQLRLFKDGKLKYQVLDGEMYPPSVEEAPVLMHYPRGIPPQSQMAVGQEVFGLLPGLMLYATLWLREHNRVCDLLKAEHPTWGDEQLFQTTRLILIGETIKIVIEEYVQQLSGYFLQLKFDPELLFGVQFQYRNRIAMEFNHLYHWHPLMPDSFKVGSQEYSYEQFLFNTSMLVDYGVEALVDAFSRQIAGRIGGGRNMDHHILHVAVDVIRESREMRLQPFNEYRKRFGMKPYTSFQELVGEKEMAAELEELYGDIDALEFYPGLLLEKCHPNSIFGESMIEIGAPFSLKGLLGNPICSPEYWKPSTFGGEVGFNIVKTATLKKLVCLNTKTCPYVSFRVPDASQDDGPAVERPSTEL

Row | time at which maximum blood plasma concentration of valdecoxib was reached ([1]; human, 20 mg IV bolus vs 20 mg valdecoxib oral immediate-release tablet) | solubility thermodynamic (physchem; pH 7.3, aqueous buffer) [mg/mL] | solubility thermodynamic (physchem; pH 7.8, aqueous buffer) [mg/mL] | solubility thermodynamic (physchem; pH 8.2, aqueous buffer) [mg/mL] | Compound | inhibitory activity against COX-1 (COX-1) | patients rating the study medication as good or excellent ([2]; 40 mg treatment group) [%] | patient's evaluation of effectiveness scores compared with placebo ([2]; each parecoxib treatment group) | proportion of patients taking rescue medication compared with placebo ([2]; parecoxib treatment groups 20, 40, 80 mg) | TRM compared with placebo ([2]; single doses 20 mg, 40 mg and 80 mg) | Patients taking rescue medication ([2]; single preemptive intravenous dose 20 mg) [%] | Median TRM (time to rescue medication) [2, 3] [h] | Patients taking rescue medication [2, 3] [%] | Patients taking rescue medication ([2]; single preemptive intravenous dose 80 mg) [%] | conversion to valdecoxib after parenteral administration ([1]; human subject, parenteral)
1 | earlier | 1 | 18 | 220 | CCC(=O)NS(=O)(=O)c1ccc(-c2c(-c3ccccc3)noc2C)cc1 [parecoxib sodium] |  |  |  |  |  |  |  |  |  | 
2 |  |  |  |  | Cc1onc(-c2ccccc2)c1-c1ccc(S(N)(=O)=O)cc1 [valdecoxib] | weak inhibitor |  |  |  |  |  |  |  |  | 
3 |  |  |  |  | CCC(=O)NS(=O)(=O)c1ccc(-c2c(-c3ccccc3)noc2C)cc1 [Parecoxib, parecoxib] | weak in vitro inhibitory activity | 92 | significantly higher | significantly lower | significantly longer TRM than placebo | 78 | >24 | 48 | 59 | rapidly and completely converted to valdecoxib

Source: patent publication US7695736B2, “Reconstitutable parenteral composition” (Pfizer Inc., priority 2001, dated 2010)
